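Protocol summary: plate cells (96-well), add compound at 5 concentrations, incubate 48 h, interpolate endpoints linearly. GI50 is the concentration that inhibits growth by half.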 Active and inactive are the calls of the source. Cut-off read from the data, not from the text of the source: active = GI50 up to about 1.1 µM and inactive = higher.
How the values were obtained:
Experiment in all cases: DTP human tumour cell line panel, 48 h
[1] = test system: RPMI-8226
[2] = test system: UO-31
[3] = test system: OVCAR-3
[4] = test system: SN12C
[5] = test system: Hs-578T
[6] = test system: HCC 2998
[7] = test system: MDA-MB-435
[8] = test system: HOP-92
[9] = test system: Malme-3M
[10] = test system: T47D
[11] = test system: 786-0
[12] = test system: HOP-62
[13] = test system: NCI-H226
[14] = test system: KM12
[15] = test system: NCI-H460
[16] = test system: CAKI-1
[17] = test system: SNB-19
[18] = test system: DU-145
[19] = test system: TK-10
[20] = test system: OVCAR-8

| SMILES | GI50 [1] | GI50 [2] | GI50 [3] | GI50 [4] | GI50 [5] | GI50 [6] | GI50 [7] | GI50 [8] | GI50 [9] | GI50 [10] | GI50 [11] | GI50 [12] | GI50 [13] | GI50 [14] | GI50 [15] | GI50 [16] | GI50 [17] | GI50 [18] | GI50 [19] | GI50 [20] |
| --- | --- | --- | --- | --- | --- | --- | --- | --- | --- | --- | --- | --- | --- | --- | --- | --- | --- | --- | --- | --- |
| CC1CC[C@@]2(OC1)OC1C[C@H]3[C@@H]4CC=C5C[C@@H](OC6OC(CO)C(OC7OC(CO)C(O)C(O)C7O)C(O)C6OC6OC(C)C(O)C(O)C6O)CC[C@]5(C)[C@H]4CC[C@]3(C)C1[C@@H]2C (some centres undefined) | 0.526 µM (active) | 0.48 µM (active) | 0.643 µM (active) | 0.635 µM (active) | 0.714 µM (active) | 0.484 µM (active) | 0.558 µM (active) | 0.729 µM (active) | 0.634 µM (active) | 0.513 µM (active) | 0.49 µM (active) | 0.593 µM (active) | 0.873 µM (active) | 0.547 µM (active) | 0.685 µM (active) | 0.76 µM (active) | 1.2 µM (inactive) | 0.476 µM (active) | 1.04 µM (active) | 0.659 µM (active) |
| CC(=O)c1c2c(cc3c1CC1(C3)Cc3ccc4c(c3C1=O)CCC4)CCC2 (centres undefined) | 13.5 µM (inactive) | 55.5 µM (inactive) | > 100 µM (inactive) | 48.2 µM (inactive) | 13.5 µM (inactive) | 29.2 µM (inactive) | 8.05 µM (inactive) | 8.85 µM (inactive) | 30.6 µM (inactive) | 9.73 µM (inactive) | > 100 µM (inactive) | > 100 µM (inactive) | > 100 µM (inactive) | 17.2 µM (inactive) | 38.6 µM (inactive) | 14.9 µM (inactive) | > 100 µM (inactive) | 99.3 µM (inactive) | 11.1 µM (inactive) | 75.3 µM (inactive) |
| C[C@H]1C2Cc3cc(N)ccc3[C@@]1(C)CCN2CCc1ccccc1 | 33.6 µM (inactive) | 52 µM (inactive) | 15.9 µM (inactive) | > 100 µM (inactive) | 96.6 µM (inactive) | 9.08 µM (inactive) | 41.9 µM (inactive) | 21.4 µM (inactive) | 17.7 µM (inactive) | 31.6 µM (inactive) | 49.9 µM (inactive) | 39.5 µM (inactive) | 58.7 µM (inactive) | 37.5 µM (inactive) | 33.1 µM (inactive) | 64.4 µM (inactive) | > 100 µM (inactive) | > 100 µM (inactive) | 78 µM (inactive) | 62.5 µM (inactive) |
| CCOC(=O)/C=C(/C(=O)OCC)n1cc(C)c(=O)n(/C(=C/C(=O)OCC)C(=O)OCC)c1=O | 1.88 µM (inactive) | 5.31 µM (inactive) | 2.79 µM (inactive) | 2.98 µM (inactive) | 6.4 µM (inactive) | 9.48 µM (inactive) | 2.5 µM (inactive) | 1.52 µM (inactive) | 1.85 µM (inactive) | 2.64 µM (inactive) | 1.28 µM (inactive) | 24.8 µM (inactive) | 6.01 µM (inactive) | 13.9 µM (inactive) | 16.1 µM (inactive) | 0.887 µM (active) | 19.8 µM (inactive) | 13.7 µM (inactive) | 2.08 µM (inactive) | 5.35 µM (inactive) |
| CN(C)CCNC(=O)c1cccc2nc3c(C(=O)NCCN(C)C)cccc3nc12 | 1.19 µM (inactive) | 1.41 µM (inactive) | 1.7 µM (inactive) | 0.918 µM (active) | 1.89 µM (inactive) | 1.15 µM (inactive) | 1.21 µM (inactive) | 2.9 µM (inactive) | 1.77 µM (inactive) | 4.34 µM (inactive) | 0.393 µM (active) | 1.31 µM (inactive) | 1.46 µM (inactive) | 1.26 µM (inactive) | 0.82 µM (active) | 2.14 µM (inactive) | 1.11 µM (active) | 1.37 µM (inactive) | 1.86 µM (inactive) | 0.421 µM (active) |
| CC1=C(C(=O)OCCO[N+](=O)[O-])C(c2cccc([N+](=O)[O-])c2)C(C(=O)OC(C)C)=C(C)N1 (centres undefined) | 2.58 µM (inactive) | 12.6 µM (inactive) | 10.4 µM (inactive) | 17.4 µM (inactive) | 7.71 µM (inactive) | 15.7 µM (inactive) | 15.2 µM (inactive) | 11 µM (inactive) | 17.7 µM (inactive) | 15.6 µM (inactive) | 13.3 µM (inactive) | 16.6 µM (inactive) | 8.95 µM (inactive) | 11 µM (inactive) | 13.8 µM (inactive) | 17.6 µM (inactive) | 19.2 µM (inactive) | 25.3 µM (inactive) | 14.9 µM (inactive) | 16.1 µM (inactive) |
| CCOC(=O)C(C)(C(=O)OCC)/C(Cl)=C\Cl | > 100 µM (inactive) | > 100 µM (inactive) | > 100 µM (inactive) | > 100 µM (inactive) | > 100 µM (inactive) | 0.0434 µM (active) | > 100 µM (inactive) | > 100 µM (inactive) | > 100 µM (inactive) | > 100 µM (inactive) | > 100 µM (inactive) | > 100 µM (inactive) | > 100 µM (inactive) | > 100 µM (inactive) | 22.6 µM (inactive) | > 100 µM (inactive) | > 100 µM (inactive) | > 100 µM (inactive) | > 100 µM (inactive) | > 100 µM (inactive) |
| COc1cc(Oc2nc3ccccc3nc2C(=O)O)cc(OC)c1OC | > 100 µM (inactive) | > 100 µM (inactive) | > 100 µM (inactive) | – | > 100 µM (inactive) | > 100 µM (inactive) | > 100 µM (inactive) | > 100 µM (inactive) | > 100 µM (inactive) | > 100 µM (inactive) | > 100 µM (inactive) | > 100 µM (inactive) | > 100 µM (inactive) | > 100 µM (inactive) | > 100 µM (inactive) | > 100 µM (inactive) | > 100 µM (inactive) | > 100 µM (inactive) | > 100 µM (inactive) | > 100 µM (inactive) |
| O=C1C=CC(=O)C(N(CCO)CCO)=C1.O=C1C=CC2(O)OCCN(CCO)C2=C1 | 91.6 µM (inactive) | > 100 µM (inactive) | > 100 µM (inactive) | > 100 µM (inactive) | > 100 µM (inactive) | > 100 µM (inactive) | > 100 µM (inactive) | > 100 µM (inactive) | > 100 µM (inactive) | > 100 µM (inactive) | > 100 µM (inactive) | > 100 µM (inactive) | > 100 µM (inactive) | > 100 µM (inactive) | > 100 µM (inactive) | > 100 µM (inactive) | > 100 µM (inactive) | > 100 µM (inactive) | > 100 µM (inactive) | > 100 µM (inactive) |
| CC[C@@]1(O)C(=O)OCc2c1cc1n(c2=O)Cc2c-1nc1ccccc1c2/C=N/NC(=O)C[N+](C)(C)C | 4.93 µM (inactive) | 0.944 µM (active) | 38.3 µM (inactive) | 0.0857 µM (active) | > 100 µM (inactive) | 4.59 µM (inactive) | 16.1 µM (inactive) | 3.68 µM (inactive) | 16.7 µM (inactive) | 0.239 µM (active) | 0.662 µM (active) | 0.359 µM (active) | 0.802 µM (active) | > 53.8 µM (inactive) | 0.15 µM (active) | 0.578 µM (active) | 0.75 µM (active) | 0.458 µM (active) | > 80.2 µM (inactive) | 1.98 µM (inactive) |
| CCOC(=O)C1=C(C)N(Cc2ccc(Cl)cc2Cl)C2(O)C(OC)CC(=O)C3C(=O)N(c4ccccc4)C(=O)C132 (centres undefined) | 1.21 µM (inactive) | 4.54 µM (inactive) | 1.33 µM (inactive) | 2.26 µM (inactive) | 9.06 µM (inactive) | 2.08 µM (inactive) | 2.63 µM (inactive) | 0.0541 µM (active) | 10.6 µM (inactive) | 0.244 µM (active) | 1.47 µM (inactive) | 0.995 µM (active) | 3.33 µM (inactive) | 2.63 µM (inactive) | 2.92 µM (inactive) | 6.71 µM (inactive) | 2.53 µM (inactive) | 1.06 µM (active) | 10 µM (inactive) | 1.95 µM (inactive) |
| C[C@]12CC[C@H]3[C@@H](CC=C4C[C@@H](O)CC[C@@]43C)[C@@H]1C[C@H](N1CCOCC1)[C@@H]2O | > 100 µM (inactive) | > 100 µM (inactive) | > 100 µM (inactive) | > 100 µM (inactive) | 85.5 µM (inactive) | > 100 µM (inactive) | > 100 µM (inactive) | > 100 µM (inactive) | > 100 µM (inactive) | > 100 µM (inactive) | 81.5 µM (inactive) | > 100 µM (inactive) | > 100 µM (inactive) | > 100 µM (inactive) | > 100 µM (inactive) | > 100 µM (inactive) | > 100 µM (inactive) | > 100 µM (inactive) | > 100 µM (inactive) | > 100 µM (inactive) |
| C=CC(C)(C)NC(C(=O)N1CCC[C@H]1c1nc(-c2nc(C(=O)OCC=C(C)C)c(C)o2)c(C)o1)C(C)C (some centres undefined) | > 100 µM (inactive) | 21.8 µM (inactive) | 46.6 µM (inactive) | > 47.8 µM (inactive) | 81.5 µM (inactive) | > 100 µM (inactive) | > 45.1 µM (inactive) | 23.3 µM (inactive) | > 100 µM (inactive) | 74.8 µM (inactive) | > 58.1 µM (inactive) | > 100 µM (inactive) | > 48.8 µM (inactive) | > 54.2 µM (inactive) | 31.9 µM (inactive) | > 55.2 µM (inactive) | > 48.6 µM (inactive) | > 84.7 µM (inactive) | > 57.8 µM (inactive) | > 58.6 µM (inactive) |

— ChEMBL document CHEMBL1201862, “PubChem BioAssay data set” (2004)
